Reference: the supplement of paper PMC10307832

How the values were obtained:
Assay in all cases: relative viability (nuclei count vs DMSO), 5 days (fraction); higher = more cells survive
kb NB 142-70 + Foretinib = compound: C1CSC2=C(C(=O)N1)SC3=C2C=C(C=C3)O [kb NB 142-70] + COc1cc2c(Oc3ccc(NC(=O)C4(C(=O)Nc5ccc(F)cc5)CC4)cc3F)ccnc2cc1OCCCN1CCOCC1 [Foretinib] (partner 0.25 µM)
Outline: (§1)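 Five library-drug doses in √10 steps were combined with a fixed anchor-drug dose, or a single drug was given alone, by pin tool to lung cancer cell lines in 1536-well plates the day after seeding. Nuclei were stained and counted after 5 days. Relative viability is the nuclei count in treated wells over that in vehicle wells, taken as the median of duplicate plates.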

[1] = compound: NCC(=O)Nc1ccc(-n2nc(C(F)(F)F)cc2-c2ccc3c(ccc4ccccc43)c2)cc1 + COc1cccc2cc(-c3nc([C@H]4CC[C@H](C(=O)O)CC4)n4ncnc(N)c34)[nH]c12 [OSI-027] (partner 0.5 µM)
Outline: as §1

[2] = compound: NCC(=O)Nc1ccc(-n2nc(C(F)(F)F)cc2-c2ccc3c(ccc4ccccc43)c2)cc1 + CS(=O)(=O)CCNCc1ccc(-c2ccc3ncnc(Nc4ccc(OCc5cccc(F)c5)c(Cl)c4)c3c2)o1 [Lapatinib] (partner 2 µM)
Outline: as §1

[3] = compound: NCC(=O)Nc1ccc(-n2nc(C(F)(F)F)cc2-c2ccc3c(ccc4ccccc43)c2)cc1 + Nc1nc2[nH]cc(CCc3ccc(C(=O)N[C@@H](CCC(=O)O)C(=O)O)cc3)c2c(=O)[nH]1 [Pemetrexed] (partner 0.2 µM)
Outline: as §1

SK-MES-1 was tested, and the relative viability (kb NB 142-70 + Foretinib; first compound 0.1 µM) was 0.875, the relative viability (kb NB 142-70 + Foretinib; first compound 1 µM) was 0.939 and the relative viability (kb NB 142-70 + Foretinib; first compound 3.162 µM) was 0.985. The relative viability ([1]; first compound 0.02 µM) was 0.677, the relative viability ([1]; first compound 0.06325 µM) was 0.575 and the relative viability ([1]; first compound 0.2 µM) was 0.622. The relative viability ([1]; first compound 0.6325 µM) was 0.616, the relative viability ([1]; first compound 2 µM) was 0.646 and the relative viability ([2]; first compound 0.02 µM) was 0.485. It also gave a relative viability ([2]; first compound 0.06325 µM) of 0.403, a relative viability ([2]; first compound 0.2 µM) of 0.546 and a relative viability ([2]; first compound 0.6325 µM) of 0.455. It also gave a relative viability ([2]; first compound 2 µM) of 0.46, a relative viability ([3]; first compound 0.02 µM) of 0.911 and a relative viability ([3]; first compound 0.06325 µM) of 0.919. For the same cell line, the relative viability ([3]; first compound 0.2 µM) was 1.05, the relative viability ([3]; first compound 0.6325 µM) was 0.85 and the relative viability ([3]; first compound 2 µM) was 1.08.
In the case of SW 1573, the relative viability (kb NB 142-70 + Foretinib; first compound 0.1 µM) is reported as 0.892, the relative viability (kb NB 142-70 + Foretinib; first compound 1 µM) is reported as 0.797 and the relative viability (kb NB 142-70 + Foretinib; first compound 3.162 µM) is reported as 0.605. It also gave a relative viability ([1]; first compound 0.02 µM) of 0.593, a relative viability ([1]; first compound 0.06325 µM) of 0.658 and a relative viability ([1]; first compound 0.2 µM) of 0.759. For the same cell line, the relative viability ([1]; first compound 0.6325 µM) was 0.487, the relative viability ([1]; first compound 2 µM) was 0.551 and the relative viability ([2]; first compound 0.02 µM) was 1.17. For the same cell line, the relative viability ([2]; first compound 0.06325 µM) was 1, the relative viability ([2]; first compound 0.2 µM) was 1.17 and the relative viability ([2]; first compound 0.6325 µM) was 0.978. It also gave a relative viability ([2]; first compound 2 µM) of 1.08, a relative viability ([3]; first compound 0.02 µM) of 0.847 and a relative viability ([3]; first compound 0.06325 µM) of 0.805. For the same cell line, the relative viability ([3]; first compound 0.2 µM) was 0.81, the relative viability ([3]; first compound 0.6325 µM) was 0.796 and the relative viability ([3]; first compound 2 µM) was 0.75.
